{
  "source": "ChEMBL document CHEMBL5463725",
  "about": "“Data for DCP probe BAY-277” (2023)",
  "key": {"[1]": {"molecular_target": "Sodium- and chloride-dependent GABA transporter 1 (Rattus norvegicus) (UniProt P23978)", "experiment": "Inhibition of Transporter, GABA at 10.0 µM in the Eurofins Panlabs Safety Screen", "details": "Compound concentration 10.0 uM"}, "[2]": {"molecular_target": "PI3-kinase p110-delta/p85-alpha (Homo sapiens) (UniProt P27986+O00329)", "experiment": "Inhibition of PI3 Kinase (p110d/p85a)(h) at 10.0 µM in the Eurofins Kinase panel", "format": "protein-complex assay", "details": "Compound concentration 10.0 uM"}, "[3]": {"molecular_target": "Serine/threonine-protein kinase Sgk1 (Homo sapiens) (UniProt O00141)", "experiment": "Inhibition of SGK(h) at 10.0 µM in the Eurofins Kinase panel", "details": "Compound concentration 10.0 uM"}, "[4]": {"molecular_target": "Tyrosine-protein kinase Mer (Homo sapiens) (UniProt Q12866)", "experiment": "Inhibition of Mer(h) at 10.0 µM in the Eurofins Kinase panel", "details": "Compound concentration 10.0 uM"}, "[5]": {"molecular_target": "SNF-related serine/threonine-protein kinase (Homo sapiens) (UniProt Q9NRH2)", "experiment": "Inhibition of SNRK(h) at 10.0 µM in the Eurofins Kinase panel", "details": "Compound concentration 10.0 uM"}, "[6]": {"molecular_target": "Tyrosine-protein kinase Lck (Homo sapiens) (UniProt P06239)", "experiment": "Inhibition of Lck(h) activated at 10.0 µM in the Eurofins Kinase panel", "details": "Compound concentration 10.0 uM"}, "[7]": {"molecular_target": "Serine/threonine-protein kinase Nek5 (Homo sapiens) (UniProt Q6P3R8)", "experiment": "Inhibition of NEK5(h) at 10.0 µM in the Eurofins Kinase panel", "details": "Compound concentration 10.0 uM"}, "[8]": {"molecular_target": "Mitogen-activated protein kinase kinase kinase 21 (Homo sapiens) (UniProt Q5TCX8)", "experiment": "Inhibition of MLK4(h) at 10.0 µM in the Eurofins Kinase panel", "details": "Compound concentration 10.0 uM"}, "[9]": {"molecular_target": "Serine/threonine-protein kinase 26 (Homo sapiens) (UniProt Q9P289)", "sequence (Q9P289 2-416 limits assumed)": "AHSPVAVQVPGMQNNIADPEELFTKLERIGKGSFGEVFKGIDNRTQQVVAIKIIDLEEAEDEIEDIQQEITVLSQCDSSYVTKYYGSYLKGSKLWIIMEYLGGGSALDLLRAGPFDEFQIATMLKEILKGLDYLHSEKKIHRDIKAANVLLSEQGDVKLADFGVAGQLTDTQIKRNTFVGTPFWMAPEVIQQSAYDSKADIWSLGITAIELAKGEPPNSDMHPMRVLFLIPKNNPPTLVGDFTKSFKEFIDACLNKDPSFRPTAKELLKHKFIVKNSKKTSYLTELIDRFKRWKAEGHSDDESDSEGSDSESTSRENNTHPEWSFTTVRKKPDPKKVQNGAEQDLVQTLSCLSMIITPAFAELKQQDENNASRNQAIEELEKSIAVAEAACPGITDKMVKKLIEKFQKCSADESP", "experiment": "Inhibition of MST4(h) at 10.0 µM in the Eurofins Kinase panel", "details": "Compound concentration 10.0 uM"}, "[10]": {"molecular_target": "Serine/threonine-protein kinase DCLK2 (Homo sapiens) (UniProt Q8N568)", "experiment": "Inhibition of DCAMKL2(h) at 10.0 µM in the Eurofins Kinase panel", "details": "Compound concentration 10.0 uM"}, "[11]": {"molecular_target": "Tribbles homolog 2 (Homo sapiens) (UniProt Q92519)", "experiment": "Inhibition of TRB2(h) at 10.0 µM in the Eurofins Kinase panel", "details": "Compound concentration 10.0 uM"}, "[12]": {"molecular_target": "Serine/threonine-protein kinase 38-like (Homo sapiens) (UniProt Q9Y2H1)", "experiment": "Inhibition of NDR2(h) at 10.0 µM in the Eurofins Kinase panel", "details": "Compound concentration 10.0 uM"}, "[13]": {"molecular_target": "Protein kinase C gamma type (Homo sapiens) (UniProt P05129)", "experiment": "Inhibition of PKCgamma(h) at 10.0 µM in the Eurofins Kinase panel", "details": "Compound concentration 10.0 uM"}, "[14]": {"molecular_target": "Tyrosine-protein kinase Fgr (Homo sapiens) (UniProt P09769)", "experiment": "Inhibition of Fgr(h) at 10.0 µM in the Eurofins Kinase panel", "details": "Compound concentration 10.0 uM"}, "[15]": {"molecular_target": "RAC-beta serine/threonine-protein kinase (Homo sapiens) (UniProt P31751)", "experiment": "Inhibition of PKBbeta(h) at 10.0 µM in the Eurofins Kinase panel", "details": "Compound concentration 10.0 uM"}, "[16]": {"molecular_target": "Protein kinase C alpha type (Homo sapiens) (UniProt P17252)", "experiment": "Inhibition of PKCalpha(h) at 10.0 µM in the Eurofins Kinase panel", "details": "Compound concentration 10.0 uM"}, "[17]": {"molecular_target": "TRAF2 and NCK-interacting protein kinase (Homo sapiens) (UniProt Q9UKE5)", "sequence (Q9UKE5 whole entry, looked up)": "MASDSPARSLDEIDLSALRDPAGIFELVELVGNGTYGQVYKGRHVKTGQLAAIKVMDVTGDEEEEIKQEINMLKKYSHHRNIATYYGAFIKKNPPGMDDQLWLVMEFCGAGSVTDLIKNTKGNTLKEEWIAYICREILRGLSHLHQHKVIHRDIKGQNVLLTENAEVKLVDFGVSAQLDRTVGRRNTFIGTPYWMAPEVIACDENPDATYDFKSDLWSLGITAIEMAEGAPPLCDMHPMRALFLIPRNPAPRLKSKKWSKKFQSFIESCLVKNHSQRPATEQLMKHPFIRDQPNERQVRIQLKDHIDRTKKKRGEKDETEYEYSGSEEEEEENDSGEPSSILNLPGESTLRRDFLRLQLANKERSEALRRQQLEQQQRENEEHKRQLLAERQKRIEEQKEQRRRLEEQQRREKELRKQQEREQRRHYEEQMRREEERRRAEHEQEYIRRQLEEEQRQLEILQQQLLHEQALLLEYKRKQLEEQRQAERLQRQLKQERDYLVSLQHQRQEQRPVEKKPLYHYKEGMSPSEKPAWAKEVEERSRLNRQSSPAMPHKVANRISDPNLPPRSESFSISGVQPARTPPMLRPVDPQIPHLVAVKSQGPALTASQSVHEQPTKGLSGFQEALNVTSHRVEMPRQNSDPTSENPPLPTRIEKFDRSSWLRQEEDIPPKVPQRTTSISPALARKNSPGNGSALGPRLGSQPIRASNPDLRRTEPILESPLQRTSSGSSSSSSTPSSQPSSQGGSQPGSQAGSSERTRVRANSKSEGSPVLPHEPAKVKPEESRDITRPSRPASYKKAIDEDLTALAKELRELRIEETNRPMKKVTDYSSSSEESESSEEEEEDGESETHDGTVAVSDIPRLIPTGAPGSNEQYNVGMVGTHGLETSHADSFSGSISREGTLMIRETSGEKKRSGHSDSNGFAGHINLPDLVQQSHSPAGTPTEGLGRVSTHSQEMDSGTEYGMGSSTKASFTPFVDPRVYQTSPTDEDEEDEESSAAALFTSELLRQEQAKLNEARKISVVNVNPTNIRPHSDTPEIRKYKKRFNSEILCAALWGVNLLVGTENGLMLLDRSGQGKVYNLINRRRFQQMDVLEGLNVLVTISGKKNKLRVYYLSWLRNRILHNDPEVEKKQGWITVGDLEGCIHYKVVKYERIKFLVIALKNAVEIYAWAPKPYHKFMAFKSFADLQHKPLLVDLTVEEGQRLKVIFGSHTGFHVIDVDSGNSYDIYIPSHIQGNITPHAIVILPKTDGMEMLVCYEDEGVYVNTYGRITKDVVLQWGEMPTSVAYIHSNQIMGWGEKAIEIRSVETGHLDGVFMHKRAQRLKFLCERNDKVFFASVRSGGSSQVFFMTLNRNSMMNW", "experiment": "Inhibition of TNIK(h) at 10.0 µM in the Eurofins Kinase panel", "details": "Compound concentration 10.0 uM"}, "[18]": {"molecular_target": "Cyclin-dependent kinase-like 2 (Homo sapiens) (UniProt Q92772)", "experiment": "Inhibition of CDKL2(h) at 10.0 µM in the Eurofins Kinase panel", "details": "Compound concentration 10.0 uM"}, "[19]": {"molecular_target": "PAS domain-containing serine/threonine-protein kinase (Homo sapiens) (UniProt Q96RG2)", "experiment": "Inhibition of PASK(h) at 10.0 µM in the Eurofins Kinase panel", "details": "Compound concentration 10.0 uM"}, "[20]": {"molecular_target": "D(3) dopamine receptor (Homo sapiens, UniProt P35462)", "sequence (P35462 whole entry)": "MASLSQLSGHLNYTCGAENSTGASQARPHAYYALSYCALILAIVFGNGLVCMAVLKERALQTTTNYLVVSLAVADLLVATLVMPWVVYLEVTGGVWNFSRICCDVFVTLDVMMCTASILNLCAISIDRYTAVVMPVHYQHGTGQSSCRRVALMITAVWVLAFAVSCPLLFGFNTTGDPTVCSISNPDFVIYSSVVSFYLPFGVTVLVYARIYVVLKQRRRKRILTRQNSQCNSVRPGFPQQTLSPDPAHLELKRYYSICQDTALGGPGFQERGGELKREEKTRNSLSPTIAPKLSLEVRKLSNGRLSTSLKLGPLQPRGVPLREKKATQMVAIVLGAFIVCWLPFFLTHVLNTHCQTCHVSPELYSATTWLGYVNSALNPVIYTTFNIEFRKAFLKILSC", "experiment": "GPCRScan assay: inhibition of D3", "design": "radioligand conc. used [nm] 0.5 – 1.8, parental cells HEKT"}, "[21]": {"molecular_target": "[Pyruvate dehydrogenase (acetyl-transferring)] kinase isozyme 2, mitochondrial (Homo sapiens) (UniProt Q15119)", "experiment": "Inhibition of PDHK2(h) at 10.0 µM in the Eurofins Kinase panel", "details": "Compound concentration 10.0 uM"}, "[22]": {"molecular_target": "MAP kinase-activated protein kinase 2 (Homo sapiens) (UniProt P49137)", "sequence (P49137 whole entry, looked up)": "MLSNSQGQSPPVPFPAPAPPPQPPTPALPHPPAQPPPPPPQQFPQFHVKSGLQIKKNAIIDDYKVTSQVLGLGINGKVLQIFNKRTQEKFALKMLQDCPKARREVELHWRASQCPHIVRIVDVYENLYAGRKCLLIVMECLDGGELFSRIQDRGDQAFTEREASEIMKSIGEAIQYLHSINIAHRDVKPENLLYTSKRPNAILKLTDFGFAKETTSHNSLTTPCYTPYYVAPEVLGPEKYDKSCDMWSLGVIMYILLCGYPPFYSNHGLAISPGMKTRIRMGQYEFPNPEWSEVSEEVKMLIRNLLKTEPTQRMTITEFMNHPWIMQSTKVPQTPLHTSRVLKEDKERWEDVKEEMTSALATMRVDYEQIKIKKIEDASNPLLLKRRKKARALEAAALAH", "experiment": "Inhibition of MAPKAP-K2(h) at 10.0 µM in the Eurofins Kinase panel", "details": "Compound concentration 10.0 uM"}, "[23]": {"molecular_target": "SRSF protein kinase 3 (Homo sapiens) (UniProt Q9UPE1)", "experiment": "Inhibition of MSSK1(h) at 10.0 µM in the Eurofins Kinase panel", "details": "Compound concentration 10.0 uM"}, "[24]": {"molecular_target": "Methionine aminopeptidase 2 (Mus musculus, UniProt O08663)", "sequence (O08663 whole entry)": "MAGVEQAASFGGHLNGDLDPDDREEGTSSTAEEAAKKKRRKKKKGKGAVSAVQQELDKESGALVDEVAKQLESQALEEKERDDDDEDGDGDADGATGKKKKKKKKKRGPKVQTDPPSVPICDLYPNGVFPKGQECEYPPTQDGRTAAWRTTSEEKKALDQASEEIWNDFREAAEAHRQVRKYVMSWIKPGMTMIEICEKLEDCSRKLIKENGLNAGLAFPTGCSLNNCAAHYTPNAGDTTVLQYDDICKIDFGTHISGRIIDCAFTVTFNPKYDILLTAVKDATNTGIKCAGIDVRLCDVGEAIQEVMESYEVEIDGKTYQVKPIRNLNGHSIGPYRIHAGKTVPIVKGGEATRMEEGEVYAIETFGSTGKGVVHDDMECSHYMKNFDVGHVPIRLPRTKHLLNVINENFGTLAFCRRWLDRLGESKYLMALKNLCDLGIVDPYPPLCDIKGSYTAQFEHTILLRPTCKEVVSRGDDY", "experiment": "METAP2 biochemical assay (mouse)"}, "[25]": {"molecular_target": "Serine/threonine-protein kinase Sgk2 (Homo sapiens) (UniProt Q9HBY8)", "experiment": "Inhibition of SGK2(h) at 10.0 µM in the Eurofins Kinase panel", "details": "Compound concentration 10.0 uM"}, "[26]": {"molecular_target": "Tyrosine-protein kinase JAK2 (Homo sapiens) (UniProt O60674)", "experiment": "Inhibition of JAK2(h) at 10.0 µM in the Eurofins Kinase panel", "details": "Compound concentration 10.0 uM"}, "[27]": {"molecular_target": "Calcium/calmodulin-dependent protein kinase type 1D (Homo sapiens) (UniProt Q8IU85)", "experiment": "Inhibition of CaMKIdelta(h) at 10.0 µM in the Eurofins Kinase panel", "details": "Compound concentration 10.0 uM"}, "[28]": {"molecular_target": "3-hydroxy-3-methylglutaryl-coenzyme A reductase (Homo sapiens) (UniProt P04035)", "sequence (P04035 whole entry)": "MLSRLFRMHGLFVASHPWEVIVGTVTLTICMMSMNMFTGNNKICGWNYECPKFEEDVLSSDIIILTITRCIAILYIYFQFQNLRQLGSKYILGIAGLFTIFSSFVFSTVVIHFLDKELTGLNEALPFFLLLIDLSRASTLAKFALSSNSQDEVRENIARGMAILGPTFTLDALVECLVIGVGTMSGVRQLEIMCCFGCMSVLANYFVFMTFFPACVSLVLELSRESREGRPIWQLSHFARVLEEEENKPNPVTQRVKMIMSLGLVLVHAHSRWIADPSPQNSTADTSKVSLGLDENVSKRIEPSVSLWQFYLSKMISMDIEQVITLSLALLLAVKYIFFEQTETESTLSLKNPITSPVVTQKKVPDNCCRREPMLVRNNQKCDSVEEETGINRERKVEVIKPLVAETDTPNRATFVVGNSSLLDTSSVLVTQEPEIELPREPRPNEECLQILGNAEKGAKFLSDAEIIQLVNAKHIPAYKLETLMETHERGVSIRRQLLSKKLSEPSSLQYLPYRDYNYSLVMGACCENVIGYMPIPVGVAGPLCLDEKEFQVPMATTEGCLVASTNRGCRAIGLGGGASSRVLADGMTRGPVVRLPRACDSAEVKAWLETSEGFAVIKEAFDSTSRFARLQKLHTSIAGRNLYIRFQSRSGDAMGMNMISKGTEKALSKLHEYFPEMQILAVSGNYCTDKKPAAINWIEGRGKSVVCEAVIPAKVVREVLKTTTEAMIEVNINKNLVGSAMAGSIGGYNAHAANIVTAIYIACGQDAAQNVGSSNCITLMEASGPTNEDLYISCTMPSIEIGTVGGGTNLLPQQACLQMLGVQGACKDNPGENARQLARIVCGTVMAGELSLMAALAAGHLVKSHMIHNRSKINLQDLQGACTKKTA", "experiment": "Inhibition of HMG-CoA Reductase at 10.0 µM in the Eurofins Panlabs Safety Screen", "details": "Compound concentration 10.0 uM"}, "[29]": {"molecular_target": "Activin receptor type-1-like (Homo sapiens) (UniProt P37023)", "sequence (P37023 whole entry)": "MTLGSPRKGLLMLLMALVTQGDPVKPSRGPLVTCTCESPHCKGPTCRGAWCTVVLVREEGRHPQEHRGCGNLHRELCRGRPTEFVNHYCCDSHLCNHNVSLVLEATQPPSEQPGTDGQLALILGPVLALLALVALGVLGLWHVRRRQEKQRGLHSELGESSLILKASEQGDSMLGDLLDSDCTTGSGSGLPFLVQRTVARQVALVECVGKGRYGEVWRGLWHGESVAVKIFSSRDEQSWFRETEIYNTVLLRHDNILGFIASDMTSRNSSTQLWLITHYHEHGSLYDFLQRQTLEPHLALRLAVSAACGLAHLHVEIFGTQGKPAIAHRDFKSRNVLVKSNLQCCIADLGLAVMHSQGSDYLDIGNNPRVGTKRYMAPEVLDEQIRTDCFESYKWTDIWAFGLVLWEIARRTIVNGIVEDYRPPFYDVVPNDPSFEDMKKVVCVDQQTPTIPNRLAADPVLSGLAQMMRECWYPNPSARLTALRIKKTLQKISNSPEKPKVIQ", "experiment": "Inhibition of ALK1(h) at 10.0 µM in the Eurofins Kinase panel", "details": "Compound concentration 10.0 uM"}, "[30]": {"molecular_target": "Calcium/calmodulin-dependent protein kinase type 1G (Homo sapiens) (UniProt Q96NX5)", "experiment": "Inhibition of CaMKIgamma(h) at 10.0 µM in the Eurofins Kinase panel", "details": "Compound concentration 10.0 uM"}, "[31]": {"molecular_target": "Wee1-like protein kinase 2 (Homo sapiens) (UniProt P0C1S8)", "experiment": "Inhibition of Wee1B(h) at 10.0 µM in the Eurofins Kinase panel", "details": "Compound concentration 10.0 uM"}, "[32]": {"molecular_target": "Muscarinic acetylcholine receptor M5 (Homo sapiens, UniProt P08912)", "sequence (P08912 whole entry)": "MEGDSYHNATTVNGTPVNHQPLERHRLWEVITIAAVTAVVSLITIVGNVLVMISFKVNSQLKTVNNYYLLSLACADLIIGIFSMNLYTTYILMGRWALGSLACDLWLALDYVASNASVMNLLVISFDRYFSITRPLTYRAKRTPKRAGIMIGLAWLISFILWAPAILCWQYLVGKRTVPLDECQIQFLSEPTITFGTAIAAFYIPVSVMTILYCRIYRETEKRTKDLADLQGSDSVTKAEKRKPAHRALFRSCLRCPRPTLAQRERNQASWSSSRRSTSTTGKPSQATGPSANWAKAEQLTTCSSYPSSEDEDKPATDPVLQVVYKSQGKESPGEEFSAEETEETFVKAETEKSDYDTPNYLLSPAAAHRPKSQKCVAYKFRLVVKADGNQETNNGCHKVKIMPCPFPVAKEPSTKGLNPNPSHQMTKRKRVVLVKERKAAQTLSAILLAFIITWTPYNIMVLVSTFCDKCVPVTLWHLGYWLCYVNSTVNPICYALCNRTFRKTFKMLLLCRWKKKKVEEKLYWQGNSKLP", "experiment": "GPCRScan assay: inhibition of M5", "design": "radioligand conc. used [nm] 0.2 – 1.0, parental cells stable CHO"}, "[33]": {"molecular_target": "Cannabinoid receptor 1 (Homo sapiens) (UniProt P21554)", "experiment": "Inhibition of Cannabinoid CB1 at 10.0 µM in the Eurofins Panlabs Safety Screen", "details": "Compound concentration 10.0 uM"}, "[34]": {"molecular_target": "eIF-2-alpha kinase GCN2 (Homo sapiens) (UniProt Q9P2K8)", "experiment": "Inhibition of GCN2(h) at 10.0 µM in the Eurofins Kinase panel", "details": "Compound concentration 10.0 uM"}, "[35]": {"molecular_target": "Mitogen-activated protein kinase kinase kinase kinase 2 MAP4K2 (Homo sapiens) (UniProt Q12851)", "experiment": "Inhibition of GCK at 10.0 µM in the Eurofins Kinase panel", "details": "Compound concentration 10.0 uM"}, "[36]": {"molecular_target": "Tyrosine-protein kinase Yes (Homo sapiens) (UniProt P07947)", "experiment": "Inhibition of Yes(h) at 10.0 µM in the Eurofins Kinase panel", "details": "Compound concentration 10.0 uM"}, "[37]": {"molecular_target": "Methionine aminopeptidase 2 (Homo sapiens, UniProt P50579)", "experiment": "Degradation in HUVEC cells (WB) Dmax (Western Blot (WB))", "format": "functional, cell-based"}, "[38]": {"molecular_target": "Ribosomal protein S6 kinase alpha-5 (Homo sapiens) (UniProt O75582)", "experiment": "Inhibition of MSK1(h) at 10.0 µM in the Eurofins Kinase panel", "details": "Compound concentration 10.0 uM"}},
  "note": "The source made the active and inactive calls. The rule behind the calls is not given here.",
  "data": [
    {"smiles": "O=C1NCCCC1N1Cc2cc(C3CCN(C(=O)CCCCCN4CCC(c5ccc(Oc6nn7cnnc7c7c6CCCC7)cc5)CC4)CC3)ccc2C1=O", "note": "(stereo not given)", "values": [
      {"measurement": "inhibition", "setting": "[1]", "value": 8, "unit": "%"},
      {"measurement": "inhibition", "setting": "[2]", "value": 11.6, "unit": "%"},
      {"measurement": "inhibition", "setting": "[3]", "value": 10.8, "unit": "%"},
      {"measurement": "inhibition", "setting": "[4]", "value": 17.9, "unit": "%"},
      {"measurement": "inhibition", "setting": "[5]", "value": 10.6, "unit": "%"},
      {"measurement": "inhibition", "setting": "[6]", "value": 13.3, "unit": "%"},
      {"measurement": "inhibition", "setting": "[7]", "value": 17.5, "unit": "%"},
      {"measurement": "inhibition", "setting": "[8]", "value": 10.7, "unit": "%"},
      {"measurement": "inhibition", "setting": "[9]", "value": 10.1, "unit": "%"},
      {"measurement": "inhibition", "setting": "[10]", "value": 12, "unit": "%"},
      {"measurement": "inhibition", "setting": "[11]", "value": 10.9, "unit": "%"},
      {"measurement": "inhibition", "setting": "[12]", "value": 14.4, "unit": "%"},
      {"measurement": "inhibition", "setting": "[13]", "value": 10.9, "unit": "%"},
      {"measurement": "inhibition", "setting": "[14]", "value": 10.1, "unit": "%"},
      {"measurement": "inhibition", "setting": "[15]", "value": 14.1, "unit": "%"},
      {"measurement": "inhibition", "setting": "[16]", "value": 12.8, "unit": "%"},
      {"measurement": "inhibition", "setting": "[17]", "value": 12.5, "unit": "%"},
      {"measurement": "inhibition", "setting": "[18]", "value": 17.6, "unit": "%"},
      {"measurement": "inhibition", "setting": "[19]", "value": 23.9, "unit": "%"},
      {"measurement": "Ki", "setting": "[20]; read-out: Ki", "value": 525, "unit": "nM"},
      {"measurement": "Ki", "setting": "[20]; read-out: pKi (converted)", "value": 490, "unit": "nM"},
      {"measurement": "inhibition", "setting": "[21]", "value": 18.6, "unit": "%"},
      {"measurement": "inhibition", "setting": "[22]", "value": 16.6, "unit": "%"},
      {"measurement": "inhibition", "setting": "[23]", "value": 12.1, "unit": "%"}
    ]},
    {"smiles": "O=C1CCC(N2Cc3cc(C4CCN(C(=O)CCCCCN5CCC(c6ccc(Oc7nn8cnnc8c8c7CCCC8)cc6)CC5)CC4)ccc3C2=O)C(=O)N1", "note": "(stereo not given)", "values": [
      {"measurement": "IC50", "setting": "[24]", "value": "5.9 nM (active)"},
      {"measurement": "inhibition", "setting": "[25]", "value": 16.5, "unit": "%"},
      {"measurement": "inhibition", "setting": "[26]", "value": 21.8, "unit": "%"},
      {"measurement": "inhibition", "setting": "[27]", "value": 11.4, "unit": "%"},
      {"measurement": "inhibition", "setting": "[28]", "value": 12, "unit": "%"},
      {"measurement": "inhibition", "setting": "[29]", "value": 11.5, "unit": "%"},
      {"measurement": "inhibition", "setting": "[30]", "value": 15.7, "unit": "%"},
      {"measurement": "inhibition", "setting": "[31]", "value": 10.3, "unit": "%"},
      {"measurement": "Ki", "setting": "[32]; read-out: Ki", "value": 568, "unit": "nM"},
      {"measurement": "Ki", "setting": "[32]; read-out: pKi (converted)", "value": 562, "unit": "nM"},
      {"measurement": "inhibition", "setting": "[33]", "value": 1, "unit": "%"},
      {"measurement": "inhibition", "setting": "[34]", "value": 17.2, "unit": "%"},
      {"measurement": "inhibition", "setting": "[35]", "value": 11.3, "unit": "%"},
      {"measurement": "inhibition", "setting": "[36]", "value": 10.9, "unit": "%"},
      {"measurement": "DCmax", "setting": "[37]", "value": 94, "unit": "%"},
      {"measurement": "inhibition", "setting": "[38]", "value": 19.4, "unit": "%"}
    ]}
  ]
}
